In patent US20260241062A1, “WATER-DISPERSED PRESSURE-SENSITIVE ADHESIVE COMPOSITION AND PRESSURE-SENSITIVE ADHESIVE SHEET” (NITTO DENKO CORPORATION, priority 2023, published 2026) one finds Water solubility and pKa data, which are given here for 8 molecules.

The conditions of data set [1]: at 20° C.; cited from earlier work.
Data set [2] is described as follows: acid dissociation constant (pKa) of the monomers.
[3] abbreviates: acid dissociation constant of each component.

Like-named read-outs stand apart in the source and are kept apart here.

Turning to `C=CC(=O)N(CC)CC` [DEAA, diethylacrylamide], the Water solubility result in data set [1] is recorded as “Soluble”. In data set [2] (setting [3]), this molecule came in with a pKa of −0.77.

Regarding `C=CN1CCCC1=O` [NVP, N-vinylpyrrolidone], the Water solubility result in data set [1] is on record as “Miscible”. The molecule further came in with a pKa in data set [2] of -0.34. For the molecule `C=CC(=O)NC(C)C` [NIPAM, N-isopropylacrylamide], the Water solubility in data set [1] was below 0.1 g/100 mL. The molecule also yielded a pKa in data set [2] of 14.8. On to `C=CC(=O)NCCCN(C)C` [DMAPAA, dimethylaminopropylacrylamide], for which the Water solubility result in data set [1] is reported as “Soluble”. The molecule also came in with a pKa in data set [2] (setting [3]) of 14.88. On to `C=C(C)C(=O)OC` [MMA, methyl methacrylate], for which, in data set [1], the Water solubility is listed as 1.6 g/100 mL.

The molecule “2-acryloyloxyethyl succinic acid [HOA-MS]” returned a pKa in data set [2] (setting [3]) of 4.35. In turn, `C=CC(=O)N1CCOCC1` [ACMO, N-acryloylmorpholine] gave a pKa in data set [2] of -1.08. As to `C=C(C)C(=O)O` [MAA, methacrylic acid], the Water solubility in data set [1] was 9.7 g/100 mL. Moreover, the pKa in data set [2] was 4.66.
